One series has as its target T1, human GLP-1 receptor (Homo sapiens, UniProt P43220).
T1 construct: expressed in transfected cells; host or cells: BHK cells, clone FCW467-12A/KZ10-1 (parent line BHKTS13), further transfected with CRE luciferase
Put plainly: In vitro potency (AlphaScreen cAMP, membranes). The class given is biochemical. The procedure: The purpose of this example is to test the activity, or potency, of the GLP-1 derivatives in vitro.
Purified plasma membranes from a stable transfected cell line, BHK467-12A (tk-ts13), expressing the human GLP-1 receptor were stimulated with the GLP-1 analogue or derivative in question, and the potency of cAMP production was measured using the AlphaScreen™ cAMP Assay Kit from Perkin Elmer Life Sciences. The basic principle of the AlphaScreen Assay is a competition between endogenous cAMP and exogenously added biotin-cAMP. The capture of cAMP is achieved by using a specific antibody conjugated to acceptor beads.
A stable transfected cell line and a high expressing clone were selected for screening. The cells were grown at 5% CO2 in DMEM, 5% FCS, 1% Pen/Strep (Penicillin/Streptomycin) and 0.5 mg/ml of the selection marker G418.
Cells at approximately 80% confluence were washed 2× with PBS and harvested with Versene (aqueous solution of the tetrasodium salt of ethylenediaminetetraacetic acid), centrifuged 5 min at 1000 rpm and the supernatant removed. The additional steps were all performed on ice. The cell pellet was homogenised by the Ultrathurax for 20-30 s in 10 ml of Buffer 1 (20 mM Na-HEPES, 10 mM EDTA, pH=7.4), centrifuged 15 min at 20,000 rpm and the pellet resuspended in 10 ml of Buffer 2 (20 mM Na-HEPES, 0.1 mM EDTA, pH=7.4). The suspension was homogenised for 20-30 s and centrifuged 15 min at 20,000 rpm. Suspension in Buffer 2, homogenisation and centrifugation was repeated once and the membranes were resuspended in Buffer 2. The protein concentration was determined and the membranes stored at −80° C. until use.
The assay was performed in flat-bottom 96-well plates (Costar cat. no:3693). The final volume per well was 50 μl.
AlphaScreen cAMP Assay Kit from Perkin Elmer Life Sciences (cat. No: 6760625M); containing Anti-cAMP Acceptor beads (10 U/μl), Streptavidin Donor beads (10 U/μl) and Biotinylated-cAMP (133 U/μl).
AlphaScreen Buffer, pH=7.4: 50 mM TRIS-HCl (Sigma, cat.no: T3253); 5 mM HEPES (Sigma, cat.no: H3375); 10 mM MgCl2, 6H2O (Merck, cat.no: 5833); 150 mM NaCl (Sigma, cat.no: S9625); 0.01% Tween (Merck, cat.no: 822184). The following was added to the AlphaScreen Buffer prior to use (final concentrations indicated): BSA (Sigma, cat. no. A7906): 0.1%; IBMX (Sigma, cat. no. 15879): 0.5 mM; ATP (Sigma, cat. no. A7699): 1 mM; GTP (Sigma, cat. no. G8877): 1 uM.
cAMP standard (dilution factor in assay=5): cAMP Solution: 5 μL of a 5 mM cAMP-stock+495 μL AlphaScreen Buffer.
Membranes were prepared from hGLP-1/BHK 467-12A cells with a concentration of 6 μg/well corresponding to 0.6 mg/ml (the amount of membranes used pr. well may vary)
“No membranes”: Acceptor Beads (15 μg/ml final) in AlphaScreen buffer
“6 μg/well membranes”: membranes+Acceptor Beads (15 μg/ml final) in AlphaScreen buffer
An aliquot (10 μl) of “No membranes” was added to the cAMP standard (per well in duplicate wells) and the positive and negative controls
An aliquot (10 μl) of “6 μg/well membranes” was added to GLP-1 and analogues (per well in duplicate or triplicate wells)
Pos. Control: 10 μl “no membranes”+10 μl AlphaScreen Buffer
Neg. Control: 10 μl “no membranes”+10 μl cAMP Stock Solution (50 μM)
As the beads are sensitive to direct light, any handling was in the dark (as dark as possible), or in green light. All dilutions were made on ice.
1. Make the AlphaScreen Buffer.
2. Dissolve and dilute the GLP-1/Analogues/cAMP standard in AlphaScreen Buffer.
3. Make the Donor Beads Solution by mixing streptavidin donor beads (2 units/well) and biotinylated cAMP (1.2 units/well) and incubate 20-30 min in the dark at room temperature
4. Add the cAMP/GLP-1/Analogues to the plate: 10 μl per well.
5. Prepare membrane/Acceptor Beads solution and add this to the plates: 10 μl per well.
6. Add the Donor Beads: 30 μl per well.
7. Wrap the plate in aluminum foil and incubate on the shaker for 3 hours (very slowly) at RT.
(In general: Bead proximity is the source of the signal in Alpha formats.)

The nature of series [1]: Pharmacokinetic (PK) study in rat. The settings on record: male, Sprague Dawley, in vivo, iv, 6 nmol/kg.
Protocol: The purpose of this Example is to investigate half-life in vivo in rat.
In vivo pharmacokinetic studies in rats were performed with the GLP-1 derivatives of a number of the Example compounds, as described in the following.
Male Sprague Dawley rats of same age with a body weight of approximately 400 g were obtained from Taconic (Denmark) and assigned to the treatments by simple randomisation on body weight, approximately 4 rats per group.
The GLP-1 derivatives (approximately 6 nmol/ml) were dissolved in 50 mM sodium phosphate, 145 mM sodium chloride, 0.05% tween 80, pH 7.4. Intravenous injections (1.0 ml/kg) of the compounds were given with a syringe in the tail vein of conscious rats. Blood was sampled from vena sublingualis for 5 days post dosing. Blood samples (200 μl) were collected in EDTA buffer (8 mM) and then centrifuged at 4° C. and 10000 G for 5 minutes. Plasma samples were kept at −20° C. until analyzed for plasma concentration of the respective GLP-1 compound.
The donor beads were coated with streptavidin, while acceptor beads were conjugated with a monoclonal antibody recognising a mid-/C-terminal epitope of the peptide. Another monoclonal antibody, specific for the N-terminus, was biotinylated. The three reactants were combined with the analyte and formed a two-sited immuno-complex. Illumination of the complex released singlet oxygen atoms from the donor beads, which were channeled into the acceptor beads and triggered chemiluminescence which was measured in an Envision plate reader. The amount of light was proportional to the concentration of the compound.
Plasma concentration-time profiles were analyzed using Phoenix WinNonLin ver. 6.2, Pharsight Inc., Mountain View, Calif., USA), and the half-life (T1/2) calculated using individual plasma concentration-time profiles from each animal.
Setting [2] is: cAMP formation in membranes from BHK467-12A cells expressing human GLP-1 receptor, read-out: In vitro potency (AlphaScreen) EC50.

Like-named read-outs stand apart in the source and are kept apart here. Numbered stars: 1 amine (or outer) side, 2 acyl side, 3 side chain; on linkers, the order of the positions; unused ones are H or OH. Square brackets hold non-standard residues; d marks the D form. Side chains are listed from the residue outwards. Peptide text beside a SMILES is read from it. * marks the point of attachment. C18 diacid = O=C(O)CCCCCCCCCCCCCCCCC(=O)*; γGlu = O=C(O)[C@H](CCC(=O)[*:2])N[*:1]; εLys = N[C@@H](CCCCN[*:1])C(=O)[*:2]; AEEA = NCCOCCOCC(=O)O; Aib = CC(C)(N)C(=O)O

T1 sequence (P43220 24-463): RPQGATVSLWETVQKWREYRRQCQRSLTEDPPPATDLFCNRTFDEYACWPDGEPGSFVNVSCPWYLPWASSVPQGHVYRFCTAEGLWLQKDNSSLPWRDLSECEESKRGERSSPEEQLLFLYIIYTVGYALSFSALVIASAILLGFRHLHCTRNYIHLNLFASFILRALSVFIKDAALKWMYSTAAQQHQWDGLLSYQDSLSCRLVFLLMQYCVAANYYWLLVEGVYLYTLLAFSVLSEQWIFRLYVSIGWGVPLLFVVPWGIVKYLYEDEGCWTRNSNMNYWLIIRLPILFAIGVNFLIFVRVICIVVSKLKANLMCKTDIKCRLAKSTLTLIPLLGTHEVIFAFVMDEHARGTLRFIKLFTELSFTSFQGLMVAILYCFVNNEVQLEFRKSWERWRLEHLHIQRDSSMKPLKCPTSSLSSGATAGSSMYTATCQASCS

What is called EC50 is the concentration needed to bring the measured effect to its halfway point. For the molecule `CC[C@H](C)[C@H](NC(=O)[C@H](Cc1ccccc1)NC(=O)[C@H](CCC(=O)O)NC(=O)[C@H](CCCCNC(=O)[C@@H](N)CCCCNC(=O)COCCOCCNC(=O)COCCOCCNC(=O)CC[C@H](NC(=O)CCCCCCCCCCCCCCCCC(=O)O)C(=O)O)NC(=O)[C@H](C)NC(=O)[C@H](C)NC(=O)[C@H](CCC(N)=O)NC(=O)[C@H](CCC(=O)O)NC(=O)[C@H](CCC(=O)O)NC(=O)[C@H](CC(C)C)NC(=O)[C@H](Cc1ccc(O)cc1)NC(=O)[C@H](CO)NC(=O)[C@H](CO)NC(=O)[C@@H](NC(=O)[C@H](CC(=O)O)NC(=O)[C@H](CO)NC(=O)[C@@H](NC(=O)[C@H](Cc1ccccc1)NC(=O)[C@@H](NC(=O)CNC(=O)[C@H](CCC(=O)O)NC(=O)C(C)(C)NC(=O)[C@@H](N)Cc1c[nH]cn1)[C@@H](C)O)[C@@H](C)O)C(C)C)C(=O)N[C@@H](C)C(=O)N[C@@H](Cc1c[nH]c2ccccc12)C(=O)N[C@@H](CC(C)C)C(=O)N[C@H](C(=O)N[C@@H](CCC(N)=O)C(=O)NCC(=O)N[C@@H](CCCNC(=N)N)C(=O)N[C@@H](CCCCNC(=O)[C@@H](N)CCCCNC(=O)COCCOCCNC(=O)COCCOCCNC(=O)CC[C@H](NC(=O)CCCCCCCCCCCCCCCCC(=O)O)C(=O)O)C(=O)O)C(C)C` [Example 28, N^ε26-[(2S)-2-amino-6-[[2-[2-[2-[[2-[2-[2-[[(4S)-4-carboxy-4-(17-carboxyheptadecanoylamino)butanoyl]amino]ethoxy]ethoxy]acetyl]amino]ethoxy]ethoxy]acetyl]amino]hexanoyl], N^ε37-[(2S)-2-amino-6-[[2-[2-[2-[[2-[2-[2-[[(4S)-4-carboxy-4-(17-carboxyheptadecanoylamino)butanoyl]amino]ethoxy]ethoxy]acetyl]amino]ethoxy]ethoxy]acetyl]amino]hexanoyl]-[Aib^8,Glu^22,Gln^34, Lys^37]-GLP-1-(7-37)-peptide] (H-H[Aib]EGTFTSDVSSYLEEQAAK([εLys-AEEA-AEEA-γGlu-C18 diacid])EFIAWLVQGRK([εLys-AEEA-AEEA-γGlu-C18 diacid])-OH; N-terminus and C-terminus assumed), the EC50 at human GLP-1 receptor (setting [2]) amounted to 7.25 nM.

One may read the half-life as the time needed for the level to fall by half in the phase considered. Higher therefore signals slow decline. For `CC[C@H](C)[C@H](NC(=O)[C@H](Cc1ccccc1)NC(=O)[C@H](CCC(=O)O)NC(=O)[C@H](CCCCNC(=O)[C@@H](N)CCCCNC(=O)COCCOCCNC(=O)CC[C@H](NC(=O)CC[C@H](NC(=O)CCCCCCCCCCCOc1ccc(C(=O)O)cc1)C(=O)O)C(=O)O)NC(=O)[C@H](C)NC(=O)[C@H](C)NC(=O)[C@H](CCC(N)=O)NC(=O)CNC(=O)[C@H](CCC(=O)O)NC(=O)[C@H](CC(C)C)NC(=O)[C@H](Cc1ccc(O)cc1)NC(=O)[C@H](CO)NC(=O)[C@H](CO)NC(=O)[C@@H](NC(=O)[C@H](CC(=O)O)NC(=O)[C@H](CO)NC(=O)[C@@H](NC(=O)[C@H](Cc1ccccc1)NC(=O)[C@@H](NC(=O)CNC(=O)[C@H](CCC(=O)O)NC(=O)C(C)(C)NC(=O)[C@@H](N)Cc1c[nH]cn1)[C@@H](C)O)[C@@H](C)O)C(C)C)C(=O)N[C@@H](C)C(=O)N[C@@H](Cc1c[nH]c2ccccc12)C(=O)N[C@@H](CC(C)C)C(=O)N[C@H](C(=O)N[C@@H](CCCNC(=N)N)C(=O)NCC(=O)N[C@@H](CCCNC(=N)N)C(=O)N[C@@H](CCCCNC(=O)[C@@H](N)CCCCNC(=O)COCCOCCNC(=O)CC[C@H](NC(=O)CC[C@H](NC(=O)CCCCCCCCCCCOc1ccc(C(=O)O)cc1)C(=O)O)C(=O)O)C(=O)O)C(C)C` [Example 15, N^ε26-[(2S)-2-amino-6-[[2-[2-[2-[[(4S)-4-carboxy-4-[[(4S)-4-carboxy-4-[12-(4-carboxyphenoxy)dodecanoylamino]butanoyl]amino]butanoyl]amino]ethoxy]ethoxy]acetyl]amino]hexanoyl], N^ε37-[(2S)-2-amino-6-[[2-[2-[2-[[(4S)-4-carboxy-4-[[(4S)-4-carboxy-4-[12-(4-carboxyphenoxy)dodecanoylamino]butanoyl]amino]butanoyl]amino]ethoxy]ethoxy]acetyl]amino]hexanoyl]-[Aib^8,Arg^34,Lys^37]-GLP-1-(7-37)-peptide], the half-life in series [1] was 1200 min. This molecule gave an EC50 on human GLP-1 receptor of 0.155 nM.

Regarding `CC[C@H](C)[C@H](NC(=O)[C@H](Cc1ccccc1)NC(=O)[C@H](CCC(=O)O)NC(=O)[C@H](CCCCNC(=O)[C@@H](N)CCCCNC(=O)[C@@H](N)CCCCNC(=O)CC[C@H](NC(=O)CCCCCCCCCCCCC(=O)O)C(=O)O)NC(=O)[C@H](C)NC(=O)[C@H](C)NC(=O)[C@H](CCC(N)=O)NC(=O)CNC(=O)[C@H](CCC(=O)O)NC(=O)[C@H](CC(C)C)NC(=O)[C@H](Cc1ccc(O)cc1)NC(=O)[C@H](CO)NC(=O)[C@H](CO)NC(=O)[C@@H](NC(=O)[C@H](CC(=O)O)NC(=O)[C@H](CO)NC(=O)[C@@H](NC(=O)[C@H](Cc1ccccc1)NC(=O)[C@@H](NC(=O)CNC(=O)[C@H](CCC(=O)O)NC(=O)C(C)(C)NC(=O)[C@@H](N)Cc1c[nH]cn1)[C@@H](C)O)[C@@H](C)O)C(C)C)C(=O)N[C@@H](C)C(=O)N[C@@H](Cc1c[nH]c2ccccc12)C(=O)N[C@@H](CC(C)C)C(=O)N[C@H](C(=O)N[C@@H](CCCNC(=N)N)C(=O)NCC(=O)N[C@@H](CCCNC(=N)N)C(=O)N[C@@H](CCCCNC(=O)[C@@H](N)CCCCNC(=O)[C@@H](N)CCCCNC(=O)CC[C@H](NC(=O)CCCCCCCCCCCCC(=O)O)C(=O)O)C(=O)O)C(C)C` [Example 2, N^ε26-[(2S)-2-amino-6-[[(2S)-2-amino-6-[[(4S)-4-carboxy-4-(13-carboxytridecanoylamino)butanoyl]amino]hexanoyl]amino]hexanoyl], N^ε37-[(2S)-2-amino-6-[[(2S)-2-amino-6-[[(4S)-4-carboxy-4-(13-carboxytridecanoylamino)butanoyl]amino]hexanoyl]amino]hexanoyl]-[Aib^8,Arg^34,Lys^37]-GLP-1-(7-37)-peptide], the EC50 at human GLP-1 receptor (setting [2]) is 0.044 nM.

With `CC[C@H](C)[C@H](NC(=O)[C@H](Cc1ccccc1)NC(=O)[C@H](CCC(=O)O)NC(=O)[C@H](CCCCNC(=O)[C@@H](N)CCCCNC(=O)COCCOCCNC(=O)COCCOCCNC(=O)CC[C@H](NC(=O)CCCCCCCCCOc1ccc(C(=O)O)cc1)C(=O)O)NC(=O)[C@H](C)NC(=O)[C@H](C)NC(=O)[C@H](CCC(N)=O)NC(=O)CNC(=O)[C@H](CCC(=O)O)NC(=O)[C@H](CC(C)C)NC(=O)[C@H](Cc1ccc(O)cc1)NC(=O)[C@H](CO)NC(=O)[C@H](CO)NC(=O)[C@@H](NC(=O)[C@H](CC(=O)O)NC(=O)[C@H](CO)NC(=O)[C@@H](NC(=O)[C@H](Cc1ccccc1)NC(=O)[C@@H](NC(=O)CNC(=O)[C@H](CCC(=O)O)NC(=O)C(C)(C)NC(=O)[C@@H](N)Cc1c[nH]cn1)[C@@H](C)O)[C@@H](C)O)C(C)C)C(=O)N[C@@H](C)C(=O)N[C@@H](Cc1c[nH]c2ccccc12)C(=O)N[C@@H](CC(C)C)C(=O)N[C@H](C(=O)N[C@@H](CCCNC(=N)N)C(=O)NCC(=O)N[C@@H](CCCNC(=N)N)C(=O)N[C@@H](CCCCNC(=O)[C@@H](N)CCCCNC(=O)COCCOCCNC(=O)COCCOCCNC(=O)CC[C@H](NC(=O)CCCCCCCCCOc1ccc(C(=O)O)cc1)C(=O)O)C(=O)O)C(C)C` [Example 5], the midpoint of the response at human GLP-1 receptor, the EC50, lay at 0.033 nM.

Values taken from patent US10604554B2, “Double-acylated GLP-1 derivatives” (Novo Nordisk A/S, priority 2012, dated 2020).
